What was measured:
[1] = test system: Raw cells; experiment: iNOS/Arg mRNA expression of macrophage with IFNγ (RT-qPCR); type: cell-based; conditions: in the presence of IFNγ 10 ng/mL; GU treated
Protocol: (§1) FIGS. 12A-12C show the effects of various YIV-906 formulations on M1/M2 mRNA expression. […] Raw cells were cultured in the presence of murine M-CSF (10 ng/mL) for 3 days, and then cultured in presence with IFNγ 10 ng/mL alone or with YIV-906GU/its components to induce polarization to M1-like macrophage for 24 h. The mRNA expression was determined by RT-qPCR following treatment at day 8. FIG. 12C illustrates the detection of YIV-906 compounds of Hepa 1-6 tumor following oral administration of YIV-906 with or without Anti-PD1 using LC-MS as described herein.
Total RNA was extracted with TRIzol reagent (Invitrogen, California, USA). The aqueous phase was collected and then one volume of ethanol was added, following the manufacturer's instructions. Before centrifuging, this slurry was added to a column (miRNeasy, Qiagen, Venlo, Limburg) for further extraction and simultaneous DNA digestion (RNase-Free DNAse set, Qiagen). cDNA was synthesized using random primers and reverse transcriptase MMLV (New England Biolabs, Ipswich, MA). qPCR assays were performed using iTaq™ SYBR® Green Supermix and the CFX96 Real-Time PCR Detection System (Bio-Rad Laboratories, Hercules, Calif.).

[2] = target: T1, mouse IDO (Mus musculus, UniProt P28776); experiment: IDO activity of IDO transfected HEK293 cells; type: cell-based; conditions: L-tryptophan 125 μM, 24 hr, kynurenine in medium
T1 construct: expressed in transfected cells; host or cells: HEK293
T1 sequence (P28776 whole entry): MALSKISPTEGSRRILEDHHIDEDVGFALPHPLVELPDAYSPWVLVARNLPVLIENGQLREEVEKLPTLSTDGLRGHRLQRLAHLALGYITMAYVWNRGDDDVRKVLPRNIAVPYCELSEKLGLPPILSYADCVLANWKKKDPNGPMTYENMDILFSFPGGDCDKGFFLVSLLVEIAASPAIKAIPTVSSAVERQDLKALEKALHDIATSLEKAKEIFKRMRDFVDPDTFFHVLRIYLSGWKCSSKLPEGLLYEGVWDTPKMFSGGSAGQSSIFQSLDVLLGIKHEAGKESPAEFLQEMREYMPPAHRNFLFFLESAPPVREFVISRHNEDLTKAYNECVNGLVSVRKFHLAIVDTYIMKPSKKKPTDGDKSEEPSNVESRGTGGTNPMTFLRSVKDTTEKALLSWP
Protocol: HEK293 cells were transfected with mouse IDO expression plasmids and then seeded for culturing overnight. L-tryptophan 125 μM with or without YIV906, YIV906GU or its flavonoids were added to the wells for 24 hr. The concentration of kynurenine of culture medium was measured using colorimetric based assay. Results were normalized to protein concentration in each well.
2×10^6 HEK293 cells were transfected with mouse IDO (2 μg/10 cm plate) for 48 h. For one plate, 1 mL PBS was used to collect cells into a 2 ml tube. Cells were centrifuged at 3,500 rpm 1 min. Cells were then sonicated in ice cold PB buffer (1 mL, pH 6.5). Cell lysis was clarified by centrifuging at 12,000 rpm for 5 min at 4° C. 25 μL cell lysis solution was mixed with YIV906 or YIV906GU (25 μL) at desired concentrations. Reaction buffer containing 50 μL PB buffer (100 mM, pH 6.5), 10 μL methylene blue (2.5%), 100 μL catalase (20 mg/mL), 250 μL L-tryptophan (500 mM) and, for every 10 mL of total solution, 70 mg of vitamin C. The reaction buffer was then added to the cell lysis solution. The solution was allowed to react for 1.5 h at 37° C. Trichloroacetic acid 30% (25 μL) was added and incubated at 50° C. for 1 hr. […] Absorbance at 540 nm was measured using a UV-vis spectrometer to determine kynurenine concentration.

[3] = LC-MS detection of YIV-906 compounds of Hepa 1-6 tumor; set-up: species or system mice; conditions: mouse, in vivo; for detection in the tumor mass: po
Protocol: as §1
Each tumor sample were homogenized in 200 μL acetronitrile/methanol/water(2/2/1, v/v/v) and 1 mm glass beads (BioSpec Products, Bartlesville, Okla.) for 30 s at 3500 rpm twice. The homogenate was then centrifuged at 12000 rpm for 15 min at 4° C. The supernatant was dried down in a Speedvac. The residue of each tumor sample was re-dissolved in 100 μL of acetonitrile, and vortexed at 3000 rpm for 3 min. The solution was then centrifuged at 12000 rpm at 4° C. for 15 min, and 2 μL supernatant was injected into the UPLC-QTOF system for analysis. All sample analyses were performed on an ACQUITY ultra-performance liquid chromatography (UPLC) system coupled with a quadrupole-time of flight (Q-TOF) MS instrument (UPLC Xevo G2-XS QTOF MS, Waters Corp., Milford, Mass., USA) with an electrospray ionization (ESI) source. Separation was carried out on a Waters ACQUITY BEH C18 column (2.1 mm×100 mm id, 1.7 μm) with a guard column (Waters ACQUITY BEH C18 column (2.1 mm×5 mm id, 1.7 μm)).
The mobile phase consisted of acetonitrile (A) and water containing 0.1% formic acid (B) using a gradient elution of 5% A at 0-2 min, 5-10% A at 2-3 min, 10-17% A at 3-10 min, 17-30% A at 10-15 min, 30-40% A at 15-20 min, 40-80% A at 20-25 min, 80% A at 25-30 min, 80-5% A at 30-31 min, and 5% A at 31-35 min. The flow rate was 0.3 mL/min. Mass spectrometry was performed on a Water Xevo G2-XS QTOF. The scan range was from 50 to 1000 Da. For the negative electrospray mode, the capillary voltage and cone voltage were set at 2.5 kV and 60 V, respectively. […]

| Compound | IFNγ action on increasing iNOS/Arg ratio [1] | IDO enzyme activity in cell cultures [2] | presence in tumors of the YIV-906 plus anti-PD1 group [3] | detection in the tumor mass [3] |
| --- | --- | --- | --- | --- |
| O=c1cc(-c2ccccc2)oc2cc(O)c(O)c(O)c12 [baicalein] | potentiate | most potent | did not have | detected |
| COc1c(O)cc2oc(-c3ccccc3)cc(=O)c2c1O [oroxylin A] | potentiate | – | – | detected |
